Assay results reported in ChEMBL document CHEMBL1641458, “A journey from benzanilides to dithiobenzanilides: Synthesis of selective spasmolytic compounds” (Bioorg Med Chem, 2011).

Key:
[1] = Antispasmodic activity in guinea pig arteria pulmonalis ring assessed as inhibition of 60 mM KCl-induced contraction after 45 mins; format: functional, Cavia porcellus
[2] = system: Aorta; experiment: tissue or blood; format: functional, tissue-based; conditions: Cavia porcellus, 0.75 h
[3] = system: Ileum; experiment: tissue or blood; format: functional, tissue-based; conditions: Cavia porcellus, 0.75 h

Measured: IC50

COc1cc(C(=S)Nc2cccc(NC(=S)c3cc(OC)c(OC)c(OC)c3)c2)cc(OC)c1OC
> 100 µM: all assays above
